The target in one test is T1, Androgen receptor (Rattus norvegicus, UniProt P15207).
T1 sequence (P15207 whole entry): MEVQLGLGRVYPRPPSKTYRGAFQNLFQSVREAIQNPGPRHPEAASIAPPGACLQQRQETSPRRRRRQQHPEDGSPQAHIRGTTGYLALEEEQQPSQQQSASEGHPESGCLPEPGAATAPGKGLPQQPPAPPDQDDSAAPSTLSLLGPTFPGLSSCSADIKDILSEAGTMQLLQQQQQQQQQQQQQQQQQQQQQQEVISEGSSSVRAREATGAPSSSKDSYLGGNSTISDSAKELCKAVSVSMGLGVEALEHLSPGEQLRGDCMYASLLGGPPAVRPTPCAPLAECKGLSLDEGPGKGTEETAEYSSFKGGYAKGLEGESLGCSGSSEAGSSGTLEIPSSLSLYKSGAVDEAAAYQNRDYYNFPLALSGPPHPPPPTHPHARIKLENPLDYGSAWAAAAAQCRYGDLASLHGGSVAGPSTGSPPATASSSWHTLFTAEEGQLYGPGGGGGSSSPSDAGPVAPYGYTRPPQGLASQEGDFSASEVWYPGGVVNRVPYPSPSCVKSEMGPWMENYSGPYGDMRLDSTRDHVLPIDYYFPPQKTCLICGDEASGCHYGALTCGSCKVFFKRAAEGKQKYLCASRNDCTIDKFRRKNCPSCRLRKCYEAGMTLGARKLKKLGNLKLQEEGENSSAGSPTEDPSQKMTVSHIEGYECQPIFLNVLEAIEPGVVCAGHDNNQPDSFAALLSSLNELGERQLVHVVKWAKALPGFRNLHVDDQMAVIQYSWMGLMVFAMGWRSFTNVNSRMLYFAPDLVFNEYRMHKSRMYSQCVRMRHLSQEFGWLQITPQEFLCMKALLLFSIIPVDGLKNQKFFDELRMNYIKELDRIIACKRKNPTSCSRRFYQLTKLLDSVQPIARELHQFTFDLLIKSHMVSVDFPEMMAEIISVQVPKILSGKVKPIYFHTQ
Type of test: functional.

Another test deals with T2, Progesterone receptor (Homo sapiens, UniProt P06401).
T2 sequence (P06401 whole entry): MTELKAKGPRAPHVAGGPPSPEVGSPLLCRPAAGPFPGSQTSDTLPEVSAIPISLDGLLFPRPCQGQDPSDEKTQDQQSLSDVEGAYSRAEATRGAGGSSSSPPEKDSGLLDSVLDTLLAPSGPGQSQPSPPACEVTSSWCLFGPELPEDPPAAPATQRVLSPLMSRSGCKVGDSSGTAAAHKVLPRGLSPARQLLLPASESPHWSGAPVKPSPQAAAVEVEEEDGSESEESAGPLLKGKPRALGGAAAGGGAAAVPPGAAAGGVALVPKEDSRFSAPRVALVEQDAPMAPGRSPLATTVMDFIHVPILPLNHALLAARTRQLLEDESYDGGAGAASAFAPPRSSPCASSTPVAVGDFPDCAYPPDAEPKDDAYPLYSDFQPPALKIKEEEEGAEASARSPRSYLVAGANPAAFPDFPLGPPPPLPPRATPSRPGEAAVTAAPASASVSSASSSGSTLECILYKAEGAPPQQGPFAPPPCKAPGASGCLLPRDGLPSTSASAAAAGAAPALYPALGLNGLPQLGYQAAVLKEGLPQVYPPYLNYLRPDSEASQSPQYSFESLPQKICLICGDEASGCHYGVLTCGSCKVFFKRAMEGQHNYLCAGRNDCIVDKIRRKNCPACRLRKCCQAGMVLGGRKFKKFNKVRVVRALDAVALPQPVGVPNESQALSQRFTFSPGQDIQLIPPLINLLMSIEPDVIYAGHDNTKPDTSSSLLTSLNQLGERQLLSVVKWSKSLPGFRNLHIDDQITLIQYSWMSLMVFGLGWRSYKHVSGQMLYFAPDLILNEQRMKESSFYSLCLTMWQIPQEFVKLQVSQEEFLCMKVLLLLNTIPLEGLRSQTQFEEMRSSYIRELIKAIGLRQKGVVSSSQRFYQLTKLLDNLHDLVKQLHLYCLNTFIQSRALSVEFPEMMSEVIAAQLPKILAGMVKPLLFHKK
It is filed as functional.

The target of test [1] is T3, Equilibrative nucleoside transporter 1 (Homo sapiens, UniProt Q99808).
T3 sequence (Q99808 whole entry): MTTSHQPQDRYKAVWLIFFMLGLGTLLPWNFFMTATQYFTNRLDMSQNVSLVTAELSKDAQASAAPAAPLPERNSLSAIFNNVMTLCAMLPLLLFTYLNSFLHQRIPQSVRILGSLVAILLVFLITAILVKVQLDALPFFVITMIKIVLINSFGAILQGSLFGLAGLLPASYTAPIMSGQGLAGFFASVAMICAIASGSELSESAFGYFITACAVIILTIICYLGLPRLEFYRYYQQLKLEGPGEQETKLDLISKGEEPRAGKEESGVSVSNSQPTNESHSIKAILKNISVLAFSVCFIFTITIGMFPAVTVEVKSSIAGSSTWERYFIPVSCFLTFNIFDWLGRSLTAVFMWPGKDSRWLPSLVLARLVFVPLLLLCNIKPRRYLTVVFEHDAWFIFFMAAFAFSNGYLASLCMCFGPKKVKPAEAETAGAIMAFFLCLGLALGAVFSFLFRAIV

Where only a bound is given, the exact number is not on record here.
Note: assay procedure not described here.

Usually AC50 stands for the concentration giving half of the maximal activity seen. A low value points to activity at low concentration. Take HYDROXOCOBALAMIN: the AC50 was above 10 µM at Androgen receptor, above 30 µM at Progesterone receptor and above 30 µM in test [1].
